ChEMBL document CHEMBL1909046, “DrugMatrix in vitro pharmacology data”

Tests used:
[1] = DRUGMATRIX: Potassium Channel [KATP] radioligand binding (ligand: [3H] Glyburide); assay type: cell membranes, Membrane; conditions: hit-t15; Not Active = under 50% inhibition at 10 µM
[2] = target: T1, Cysteinyl leukotriene receptor 1 (Homo sapiens, UniProt Q9Y271); assay type: cell membranes, Membrane; conditions: cho-k1; also: in other assays of this panel Not Active means under 50% inhibition at 10 µM
T1 sequence (Q9Y271 whole entry): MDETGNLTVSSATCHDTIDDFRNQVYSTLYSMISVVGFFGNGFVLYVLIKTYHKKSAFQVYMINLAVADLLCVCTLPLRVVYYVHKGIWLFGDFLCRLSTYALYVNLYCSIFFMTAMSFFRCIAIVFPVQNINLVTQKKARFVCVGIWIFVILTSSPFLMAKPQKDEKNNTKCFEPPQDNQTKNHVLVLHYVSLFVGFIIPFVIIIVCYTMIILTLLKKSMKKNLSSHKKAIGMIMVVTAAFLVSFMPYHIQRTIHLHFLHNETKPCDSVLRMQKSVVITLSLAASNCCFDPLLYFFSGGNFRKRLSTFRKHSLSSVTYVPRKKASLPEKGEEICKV

[3] = target: Platelet-activating factor receptor (Homo sapiens, UniProt P25105); assay type: tissue-based; also: in other assays of this panel Not Active means under 50% inhibition at 10 µM
Chain of Platelet-activating factor receptor (P25105 whole entry): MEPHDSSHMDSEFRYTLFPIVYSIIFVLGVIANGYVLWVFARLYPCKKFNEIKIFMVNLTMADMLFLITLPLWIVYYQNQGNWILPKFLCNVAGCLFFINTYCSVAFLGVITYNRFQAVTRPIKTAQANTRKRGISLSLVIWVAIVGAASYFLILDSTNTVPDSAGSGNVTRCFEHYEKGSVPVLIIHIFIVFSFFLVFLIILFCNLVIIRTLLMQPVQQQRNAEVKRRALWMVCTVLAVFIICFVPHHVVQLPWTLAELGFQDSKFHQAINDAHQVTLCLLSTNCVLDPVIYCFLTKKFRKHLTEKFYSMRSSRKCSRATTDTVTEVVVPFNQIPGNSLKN

[4] = target: Sigma non-opioid intracellular receptor 1 (Homo sapiens, UniProt Q99720); assay: DRUGMATRIX: Sigma1 radioligand binding (ligand: [3H] Haloperidol); assay type: cell membranes, Jurkat, Membrane; conditions: Not Active = under 50% inhibition at 10 µM; for Ki: read-out: Ki
Chain of Sigma non-opioid intracellular receptor 1 (Q99720 whole entry): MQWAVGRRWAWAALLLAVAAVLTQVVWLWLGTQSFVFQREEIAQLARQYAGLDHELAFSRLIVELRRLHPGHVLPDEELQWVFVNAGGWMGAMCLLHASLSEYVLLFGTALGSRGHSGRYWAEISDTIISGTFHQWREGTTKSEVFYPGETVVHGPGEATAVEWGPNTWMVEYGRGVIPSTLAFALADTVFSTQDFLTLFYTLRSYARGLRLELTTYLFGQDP

[5] = target: T2, Glucocorticoid receptor (Homo sapiens, UniProt P04150); conditions: hela s3; also: in other assays of this panel Not Active means under 50% inhibition at 10 µM
T2 sequence (P04150 whole entry): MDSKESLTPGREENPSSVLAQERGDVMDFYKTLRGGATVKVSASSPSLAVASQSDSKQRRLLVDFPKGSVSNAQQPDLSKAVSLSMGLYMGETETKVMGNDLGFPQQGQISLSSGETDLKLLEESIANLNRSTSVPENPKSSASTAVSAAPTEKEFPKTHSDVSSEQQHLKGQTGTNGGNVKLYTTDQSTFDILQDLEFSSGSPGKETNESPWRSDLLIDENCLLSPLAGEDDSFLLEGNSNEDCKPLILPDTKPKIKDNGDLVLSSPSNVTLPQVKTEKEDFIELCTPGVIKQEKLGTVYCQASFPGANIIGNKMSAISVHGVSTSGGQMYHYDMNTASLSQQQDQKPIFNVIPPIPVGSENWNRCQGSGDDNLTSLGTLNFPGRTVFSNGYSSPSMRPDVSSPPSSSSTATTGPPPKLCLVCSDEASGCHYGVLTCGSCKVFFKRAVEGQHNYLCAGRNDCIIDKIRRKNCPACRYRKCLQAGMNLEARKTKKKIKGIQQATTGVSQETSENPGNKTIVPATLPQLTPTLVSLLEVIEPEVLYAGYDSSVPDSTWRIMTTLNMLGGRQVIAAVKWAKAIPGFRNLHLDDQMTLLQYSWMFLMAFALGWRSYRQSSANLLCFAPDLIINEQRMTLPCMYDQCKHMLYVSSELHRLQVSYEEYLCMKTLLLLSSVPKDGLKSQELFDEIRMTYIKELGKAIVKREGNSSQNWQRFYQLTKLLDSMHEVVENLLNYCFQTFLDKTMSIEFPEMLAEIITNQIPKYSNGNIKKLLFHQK

[6] = target: Insulin receptor (Rattus norvegicus, UniProt P15127); assay type: cell membranes, Wistar, Liver, Membrane; also: in other assays of this panel Not Active means under 50% inhibition at 10 µM
Chain of Insulin receptor (P15127 27-759 limits assumed): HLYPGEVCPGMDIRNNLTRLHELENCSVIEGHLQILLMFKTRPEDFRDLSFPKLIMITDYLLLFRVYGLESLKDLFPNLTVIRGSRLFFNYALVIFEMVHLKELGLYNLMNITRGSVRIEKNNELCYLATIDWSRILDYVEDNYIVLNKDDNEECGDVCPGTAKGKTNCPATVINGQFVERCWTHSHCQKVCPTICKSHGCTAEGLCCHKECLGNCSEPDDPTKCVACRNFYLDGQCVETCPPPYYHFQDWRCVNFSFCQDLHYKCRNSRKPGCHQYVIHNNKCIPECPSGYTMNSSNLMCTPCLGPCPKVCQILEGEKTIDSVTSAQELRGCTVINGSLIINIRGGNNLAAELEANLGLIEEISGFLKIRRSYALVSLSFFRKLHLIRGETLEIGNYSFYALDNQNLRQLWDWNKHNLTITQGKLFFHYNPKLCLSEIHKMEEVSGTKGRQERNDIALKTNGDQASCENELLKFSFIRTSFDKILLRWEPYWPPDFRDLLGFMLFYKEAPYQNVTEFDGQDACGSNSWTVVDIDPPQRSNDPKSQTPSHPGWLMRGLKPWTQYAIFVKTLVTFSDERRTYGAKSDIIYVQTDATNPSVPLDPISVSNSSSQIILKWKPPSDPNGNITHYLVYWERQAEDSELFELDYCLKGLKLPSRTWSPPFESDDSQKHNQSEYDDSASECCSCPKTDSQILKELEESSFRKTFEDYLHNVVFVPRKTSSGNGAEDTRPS
Chain of Insulin receptor (P15127 764-1383 limits assumed): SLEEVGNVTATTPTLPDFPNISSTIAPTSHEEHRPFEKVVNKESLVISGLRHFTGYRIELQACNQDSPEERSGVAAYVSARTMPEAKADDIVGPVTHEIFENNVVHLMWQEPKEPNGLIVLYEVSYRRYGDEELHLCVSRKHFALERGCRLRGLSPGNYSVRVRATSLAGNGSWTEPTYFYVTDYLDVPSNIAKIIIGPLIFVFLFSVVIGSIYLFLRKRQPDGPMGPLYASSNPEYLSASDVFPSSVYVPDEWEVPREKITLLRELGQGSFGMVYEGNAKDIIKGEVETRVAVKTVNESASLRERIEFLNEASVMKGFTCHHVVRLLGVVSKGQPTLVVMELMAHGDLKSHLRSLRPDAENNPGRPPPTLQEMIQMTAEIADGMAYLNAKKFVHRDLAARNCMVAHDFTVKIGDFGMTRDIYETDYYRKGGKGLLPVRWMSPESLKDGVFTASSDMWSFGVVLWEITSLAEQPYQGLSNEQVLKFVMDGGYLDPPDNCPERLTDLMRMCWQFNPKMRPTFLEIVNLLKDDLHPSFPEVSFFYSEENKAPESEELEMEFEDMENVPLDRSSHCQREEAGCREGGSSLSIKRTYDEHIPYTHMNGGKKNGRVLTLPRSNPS

[7] = target: 5-hydroxytryptamine receptor 6 (Homo sapiens, UniProt P50406); assay type: cell membranes, HeLa, Membrane; also: in other assays of this panel Not Active means under 50% inhibition at 10 µM
Chain of 5-hydroxytryptamine receptor 6 (P50406 whole entry): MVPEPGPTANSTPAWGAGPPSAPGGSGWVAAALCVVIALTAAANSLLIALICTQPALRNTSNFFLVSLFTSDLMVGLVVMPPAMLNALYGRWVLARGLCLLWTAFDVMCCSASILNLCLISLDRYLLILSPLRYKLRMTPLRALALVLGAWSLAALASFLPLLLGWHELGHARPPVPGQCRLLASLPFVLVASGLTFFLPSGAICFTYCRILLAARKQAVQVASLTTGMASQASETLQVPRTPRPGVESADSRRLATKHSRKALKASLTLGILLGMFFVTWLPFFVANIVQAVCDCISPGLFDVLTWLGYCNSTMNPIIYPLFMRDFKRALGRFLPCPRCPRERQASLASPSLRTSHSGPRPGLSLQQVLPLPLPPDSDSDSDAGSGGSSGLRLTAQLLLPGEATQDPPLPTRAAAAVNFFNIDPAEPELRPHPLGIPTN

[8] = target: Vasopressin V1a receptor (Homo sapiens, UniProt P37288); assay type: cell membranes, Membrane; conditions: hek293; also: in other assays of this panel Not Active means under 50% inhibition at 10 µM
Chain of Vasopressin V1a receptor (P37288 whole entry): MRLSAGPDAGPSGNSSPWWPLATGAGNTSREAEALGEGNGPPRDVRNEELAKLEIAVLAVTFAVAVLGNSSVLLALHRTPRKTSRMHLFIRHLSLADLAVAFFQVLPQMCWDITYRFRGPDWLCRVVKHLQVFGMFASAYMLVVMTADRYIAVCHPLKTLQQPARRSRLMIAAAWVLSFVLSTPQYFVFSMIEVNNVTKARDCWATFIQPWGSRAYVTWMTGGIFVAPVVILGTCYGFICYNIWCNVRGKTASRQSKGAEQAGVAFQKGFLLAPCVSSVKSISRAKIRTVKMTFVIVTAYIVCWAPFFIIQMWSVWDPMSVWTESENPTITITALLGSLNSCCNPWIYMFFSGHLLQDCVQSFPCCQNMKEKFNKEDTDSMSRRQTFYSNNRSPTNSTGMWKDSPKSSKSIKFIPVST

For `Cc1c(C)c2c(c(C)c1O)CCC(C)(CN1CCN(c3cc(N4CCCC4)nc(N4CCCC4)n3)CC1)O2` (stereo not given), the IC50 [1] was “Not Active”, the Ki [1] was “Not Active” and the IC50 [2] was “Not Active”. The IC50 [3] was “Not Active”, the IC50 ([4]; jurkat) was “Not Active” and the IC50 [5] was “Not Active”. The IC50 [6] was “Not Active”, the IC50 ([7]; hela) was “Not Active” and the IC50 [8] was “Not Active”.

For `O=C(O)c1cn(-c2ccc(F)cc2)c2cc(N3CCNCC3)c(F)cc2c1=O` [SARAFLOXACIN], the IC50 [1] was “Not Active”, the Ki [1] was “Not Active” and the IC50 [2] was “Not Active”. For the same compound, the IC50 [3] was “Not Active”, the IC50 ([4]; jurkat) was “Not Active” and the IC50 [5] was “Not Active”. The IC50 [6] was “Not Active”, the IC50 ([7]; hela) was “Not Active” and the IC50 [8] was “Not Active”.

With `Nc1cc(N2CCCCC2)nc(N)[n+]1[O-]` [MINOXIDIL] the IC50 [1] was “Not Active”, the Ki [1] was “Not Active” and the IC50 [2] was “Not Active”. The IC50 [3] was “Not Active”, the IC50 ([4]; jurkat) was “Not Active” and the IC50 [5] was “Not Active”. The IC50 [6] was “Not Active”, the IC50 ([7]; hela) was “Not Active” and the IC50 [8] was “Not Active”.

For `CC(C)NCC(O)c1ccc(NS(C)(=O)=O)cc1` (stereo not given) [SOTALOL], the IC50 [1] was “Not Active”, the Ki [1] was “Not Active” and the IC50 [2] was “Not Active”. For the same compound, the IC50 [3] was “Not Active”, the IC50 ([4]; jurkat) was “Not Active” and the IC50 [5] was “Not Active”. For the same compound, the IC50 [6] was “Not Active”, the IC50 ([7]; hela) was “Not Active” and the IC50 [8] was “Not Active”.

With `CS(=O)(=O)c1ccc([C@@H](O)[C@@H](CO)NC(=O)C(Cl)Cl)cc1` [THIAMPHENICOL] the IC50 [1] was “Not Active”, the Ki [1] was “Not Active” and the IC50 [2] was “Not Active”. For the same compound, the IC50 [3] was “Not Active”, the IC50 ([4]; jurkat) was “Not Active” and the IC50 [5] was “Not Active”. The IC50 [6] was “Not Active”, the IC50 ([7]; hela) was “Not Active” and the IC50 [8] was “Not Active”.

With `CCN1CCC[C@H]1CNC(=O)c1cc(S(N)(=O)=O)ccc1OC` [LEVOSULPIRIDE] the IC50 [1] was “Not Active”, the Ki [1] was “Not Active” and the IC50 [2] was “Not Active”. The IC50 [3] was “Not Active”, the IC50 ([4]; jurkat) was “Not Active” and the IC50 [5] was “Not Active”. For the same compound, the IC50 [6] was “Not Active”, the IC50 ([7]; hela) was “Not Active” and the IC50 [8] was “Not Active”.

In the case of `CCN(CC)CC(=O)Nc1c(C)cccc1C` [LIDOCAINE], the IC50 [1] is reported as “Not Active”, the Ki [1] is reported as “Not Active” and the IC50 [2] is reported as “Not Active”. For the same compound, the IC50 [3] was “Not Active”, the IC50 ([4]; jurkat) was “Not Active” and the IC50 [5] was “Not Active”. The IC50 [6] was “Not Active”, the IC50 ([7]; hela) was “Not Active” and the IC50 [8] was “Not Active”.

For `CC(c1cc2ccccc2s1)N(O)C(N)=O` (stereo not given) [ZILEUTON], the IC50 [1] was “Not Active”, the Ki [1] was “Not Active” and the IC50 [2] was “Not Active”. The IC50 [3] was “Not Active”, the IC50 ([4]; jurkat) was “Not Active” and the IC50 [5] was “Not Active”. The IC50 [6] was “Not Active”, the IC50 ([7]; hela) was “Not Active” and the IC50 [8] was “Not Active”.

With `CCCCNc1ccc(C(=O)OCCN(C)C)cc1` [TETRACAINE] the IC50 [1] was “Not Active”, the Ki [1] was “Not Active” and the IC50 [2] was “Not Active”. For the same compound, the IC50 [3] was “Not Active”, the IC50 ([4]; read-out: IC50) was 1670 nM and the Ki [4] was 703 nM. For the same compound, the IC50 [5] was “Not Active”, the IC50 [6] was “Not Active” and the IC50 ([7]; hela) was “Not Active”. For the same compound, the IC50 [8] was “Not Active”.

With `CO[C@@H]1[C@@H](OC)[C@H](C)[C@@](O)(CC(=O)O)O[C@H]1[C@H](C)[C@H]1O[C@@]2(CC[C@@](C)([C@H]3CC[C@@](C)([C@@H]4O[C@@H]([C@H]5O[C@](C)(O)[C@H](C)C[C@@H]5C)C[C@@H]4O[C@@H]4C[C@H](OC)[C@@H](OC)[C@H](C)O4)O3)O2)C[C@H](O)[C@H]1C` [MADURAMICIN ACID] the IC50 [1] was “Not Active”, the Ki [1] was “Not Active” and the IC50 [2] was “Not Active”. For the same compound, the IC50 [3] was “Not Active”, the IC50 ([4]; jurkat) was “Not Active” and the IC50 [5] was “Not Active”. The IC50 [6] was “Not Active”, the IC50 ([7]; read-out: IC50) was 1.7 nM and the Ki ([7]; read-out: Ki) was 0.789 nM. For the same compound, the IC50 [8] was “Not Active”.

For `CC(C)Cc1ccc([C@@H](C)C(=O)O)cc1` [(R)-IBUPROPHEN], the IC50 [1] was “Not Active”, the Ki [1] was “Not Active” and the IC50 [2] was “Not Active”. The IC50 [3] was “Not Active”, the IC50 ([4]; jurkat) was “Not Active” and the IC50 [5] was “Not Active”. The IC50 [6] was “Not Active”, the IC50 ([7]; hela) was “Not Active” and the IC50 [8] was “Not Active”.

With `NC(=O)N1C(=O)/C(=C(\O)c2cccs2)c2cc(Cl)ccc21` [TENIDAP] the IC50 [1] was “Not Active”, the Ki [1] was “Not Active” and the IC50 [2] was “Not Active”. For the same compound, the IC50 [3] was “Not Active”, the IC50 ([4]; jurkat) was “Not Active” and the IC50 [5] was “Not Active”. The IC50 [6] was “Not Active”, the IC50 ([7]; hela) was “Not Active” and the IC50 [8] was “Not Active”.

For `O=C1C(CC[S+]([O-])c2ccccc2)C(=O)N(c2ccccc2)N1c1ccccc1` (stereo not given) [SULFINPYRAZONE], the IC50 [1] was “Not Active”, the Ki [1] was “Not Active” and the IC50 [2] was “Not Active”. For the same compound, the IC50 [3] was “Not Active”, the IC50 ([4]; jurkat) was “Not Active” and the IC50 [5] was “Not Active”. The IC50 [6] was “Not Active”, the IC50 ([7]; hela) was “Not Active” and the IC50 [8] was “Not Active”.

In the case of `CO[C@H]1/C=C/O[C@@]2(C)Oc3c(C)c(O)c4c(O)c(c(/C=N/N5CCN(C6CCCC6)CC5)c(O)c4c3C2=O)NC(=O)/C(C)=C\C=C\[C@H](C)[C@H](O)[C@@H](C)[C@@H](O)[C@@H](C)[C@H](OC(C)=O)[C@@H]1C` [RIFAPENTINE], the IC50 [1] is reported as “Not Active”, the Ki [1] is reported as “Not Active” and the IC50 [2] is reported as “Not Active”. For the same compound, the IC50 [3] was “Not Active”, the IC50 ([4]; jurkat) was “Not Active” and the IC50 [5] was “Not Active”. For the same compound, the IC50 [6] was “Not Active”, the IC50 ([7]; hela) was “Not Active” and the IC50 [8] was “Not Active”.

For `CCCCOc1cc(CC2CNC(=O)N2)ccc1OC` (stereo not given) [RO-201724], the IC50 [1] was “Not Active”, the Ki [1] was “Not Active” and the IC50 [2] was “Not Active”. For the same compound, the IC50 [3] was “Not Active”, the IC50 ([4]; jurkat) was “Not Active” and the IC50 [5] was “Not Active”. The IC50 [6] was “Not Active”, the IC50 ([7]; hela) was “Not Active” and the IC50 [8] was “Not Active”.

For `N#Cc1ccc(C(c2ccc(C#N)cc2)n2cncn2)cc1` [LETROZOLE], the IC50 [1] was “Not Active”, the Ki [1] was “Not Active” and the IC50 [2] was “Not Active”. For the same compound, the IC50 [3] was “Not Active”, the IC50 ([4]; jurkat) was “Not Active” and the IC50 [5] was “Not Active”. The IC50 [6] was “Not Active”, the IC50 ([7]; hela) was “Not Active” and the IC50 [8] was “Not Active”.

For `CN(C/C=C/C#CC(C)(C)C)Cc1cccc2ccccc12` [TERBINAFINE], the IC50 [1] was “Not Active”, the Ki [1] was “Not Active” and the IC50 [2] was “Not Active”. The IC50 [3] was “Not Active”, the IC50 ([4]; read-out: IC50) was 560 nM and the Ki [4] was 235 nM. For the same compound, the IC50 [5] was “Not Active”, the IC50 [6] was “Not Active” and the IC50 ([7]; hela) was “Not Active”. For the same compound, the IC50 [8] was “Not Active”.

In the case of `O=C1Nc2ccc(Cl)cc2C(c2ccccc2Cl)=NC1O` (stereo not given) [LORAZEPAM], the IC50 [1] is reported as “Not Active”, the Ki [1] is reported as “Not Active” and the IC50 [2] is reported as “Not Active”. The IC50 [3] was “Not Active”, the IC50 ([4]; jurkat) was “Not Active” and the IC50 [5] was “Not Active”. The IC50 [6] was “Not Active”, the IC50 ([7]; hela) was “Not Active” and the IC50 [8] was “Not Active”.
